Source: US5213974A, “Fermentation process for preparing antibiotics mureidomycins A, B, C and D” (priority 1986, dated 1993)
Converted amounts (≈) assume the structure as drawn.

Assays:
[1] = test system: Pseudomonas aeruginosa SANK 73375; experiment: MIC, two-fold agar dilution method, Mueller-Hinton agar; format: cell-based
Method: (§1) The minimal inhibitory concentrations (MIC) of mureidomycins A, B, C and D against various gram-positive and gram-negative bacteria were determined by the two-fold agar dilution method, using a Mueller-Hinton agar medium (produced by Difco).

[2] = test system: Esherichia coli NIHJ JC-2; experiment: as above; format: cell-based
Method: as §1

[3] = test system: Klebsiella pneumoniae PCI 602; experiment: as above; format: cell-based
Method: as §1

[4] = test system: Pseudomonas aeruginosa SANK 71873; experiment: as above; format: cell-based
Method: as §1

[5] = test system: Pseudomonas aeruginosa SANK 75775; experiment: as above; format: cell-based
Method: as §1

[6] = test system: Pseudomonas aeruginosa ATCC 13388; experiment: as above; format: cell-based
Method: as §1

[7] = test system: Pseudomonas aeruginosa SANK 70970; experiment: as above; format: cell-based
Method: as §1

[8] = test system: Proteus mirabilis SANK 70461; experiment: as above; format: cell-based
Method: as §1

[9] = test system: Pseudomonas acidovorans SANK 72782; experiment: as above; format: cell-based
Method: as §1

[10] = test system: Pseudomonas aeruginosa SANK 70479; experiment: as above; format: cell-based
Method: as §1

[11] = test system: Serratia marcescens SANK 73060; experiment: as above; format: cell-based
Method: as §1

[12] = test system: Pseudomonas aeruginosa NCTC 10490; experiment: as above; format: cell-based
Method: as §1

[13] = test system: Staphylococcus aureus FDA 209P JC-1; experiment: as above; format: cell-based
Method: as §1

[14] = test system: Pseudomonas aeruginosa NRRLB 1000; experiment: as above; format: cell-based
Method: as §1

[15] = test system: Pseudomonas aeruginosa SANK 73379; experiment: as above; format: cell-based
Method: as §1

[16] = test system: Pseudomonas aeruginosa SANK 75175; experiment: as above; format: cell-based
Method: as §1

[17] = test system: Pseudomonas aeruginosa SANK 70579; experiment: as above; format: cell-based
Method: as §1

[18] = test system: Pseudomonas aeruginosa SANK 73279; experiment: as above; format: cell-based
Method: as §1

[19] = Solubility in water and organic solvents; format: physicochemical
[20] = test system: mice; experiment: Toxicity in mice, intravenous; format: in vivo
[21] = test system: gram-negative bacteria, particularly bacteria of the genus Pseudomonas; experiment: Antibacterial activity, summary of the MIC data; format: cell-based
Method: as §1
From the above data, mureidomycins A, B, C and D are active against gram-negative bacteria, particularly against bacteria of the genus Pseudomonas.

With CSCC[C@H](NC(=O)NC(Cc1cccc(O)c1)C(=O)O)C(=O)N[C@@H](C(=O)NC=C1CC(O)C(n2ccc(=O)[nH]c2=O)O1)C(C)N(C)C(=O)[C@@H](N)Cc1cccc(O)c1 (some centres unmarked) [Mureidomycin A, mureidomycin A] the MIC [1] was 12.5 µg/mL (≈ 14.9 µM), the MIC [2] was greater than 200 µg/mL and the MIC [3] was 25 µg/mL (≈ 29.7 µM). The MIC [4] was 6.25 µg/mL (≈ 7.43 µM), the MIC [5] was 6.25 µg/mL (≈ 7.43 µM) and the MIC [6] was 25 µg/mL (≈ 29.7 µM). The MIC [7] was 12.5 µg/mL (≈ 14.9 µM), the MIC [8] was greater than 200 µg/mL and the MIC [9] was greater than 200 µg/mL. The MIC [10] was 6.25 µg/mL (≈ 7.43 µM), the MIC [11] was greater than 200 µg/mL and the MIC [12] was 0.4 µg/mL (≈ 0.476 µM). It also gave an MIC [13] of 200 µg/mL (≈ 238 µM), an MIC [14] of 25 µg/mL (≈ 29.7 µM) and an MIC [15] of 100 µg/mL (≈ 119 µM). The MIC [16] was 25 µg/mL (≈ 29.7 µM), the MIC [17] was less than 0.1 µg/mL and the MIC [18] was 12.5 µg/mL (≈ 14.9 µM). For the same compound, the Solubility ([19]; acetone) was “slightly soluble”, the Solubility ([19]; benzene) was “insoluble” and the Solubility ([19]; chloroform) was “insoluble”. For the same compound, the Solubility ([19]; ethyl acetate) was “insoluble”, the Solubility ([19]; methanol) was “Soluble” and the Solubility ([19]; water) was “Soluble”. The toxicity ([20]; mice, 400 mg/kg intravenously) was “No toxicity was observed” and the “activity against gram-negative bacteria” value [21] was “active”.

CSCC[C@H](NC(=O)NC(Cc1cccc(O)c1)C(=O)O)C(=O)N[C@@H](C(=O)N/C=C1\CC(O)C(N2CCC(=O)NC2=O)O1)C(C)N(C)C(=O)[C@@H](N)Cc1cccc(O)c1 (some centres unmarked) [Mureidomycin B, mureidomycin B] gave an MIC [1] of 25 µg/mL (≈ 29.7 µM), an MIC [2] greater than 200 µg/mL and an MIC [3] of 25 µg/mL (≈ 29.7 µM). It also gave an MIC [4] of 25 µg/mL (≈ 29.7 µM), an MIC [5] of 200 µg/mL (≈ 237 µM) and an MIC [6] of 50 µg/mL (≈ 59.3 µM). For the same compound, the MIC [7] was 25 µg/mL (≈ 29.7 µM), the MIC [8] was greater than 200 µg/mL and the MIC [9] was 200 µg/mL (≈ 237 µM). For the same compound, the MIC [10] was 12.5 µg/mL (≈ 14.8 µM), the MIC [11] was greater than 200 µg/mL and the MIC [12] was 0.8 µg/mL (≈ 0.949 µM). For the same compound, the MIC [13] was greater than 200 µg/mL, the MIC [14] was 50 µg/mL (≈ 59.3 µM) and the MIC [15] was 200 µg/mL (≈ 237 µM). For the same compound, the MIC [16] was 50 µg/mL (≈ 59.3 µM), the MIC [17] was 0.2 µg/mL (≈ 0.237 µM) and the MIC [18] was 25 µg/mL (≈ 29.7 µM). The Solubility ([19]; acetone) was “slightly soluble”, the Solubility ([19]; benzene) was “insoluble” and the Solubility ([19]; chloroform) was “insoluble”. The Solubility ([19]; ethyl acetate) was “insoluble”, the Solubility ([19]; methanol) was “Soluble” and the Solubility ([19]; water) was “Soluble”. The toxicity ([20]; mice, 400 mg/kg intravenously) was “No toxicity was observed” and the “activity against gram-negative bacteria” value [21] was “active”.

In the case of CSCC[C@H](NC(=O)NC(Cc1cccc(O)c1)C(=O)O)C(=O)N[C@@H](C(=O)NC=C1CC(O)C(n2ccc(=O)[nH]c2=O)O1)C(C)N(C)C(=O)[C@H](Cc1cccc(O)c1)NC(=O)CN (some centres unmarked) [Mureidomycin C, mureidomycin C], the MIC [1] is reported as 3.13 µg/mL (≈ 3.49 µM), the MIC [2] is reported as greater than 200 µg/mL and the MIC [3] is reported as 12.5 µg/mL (≈ 13.9 µM). It also gave an MIC [4] of 1.56 µg/mL (≈ 1.74 µM), an MIC [5] of 1.56 µg/mL (≈ 1.74 µM) and an MIC [6] of 3.13 µg/mL (≈ 3.49 µM). It also gave an MIC [7] of 1.56 µg/mL (≈ 1.74 µM), an MIC [8] greater than 200 µg/mL and an MIC [9] greater than 200 µg/mL. It also gave an MIC [10] of 1.56 µg/mL (≈ 1.74 µM), an MIC [11] greater than 200 µg/mL and an MIC [12] of 0.4 µg/mL (≈ 0.445 µM). For the same compound, the MIC [13] was greater than 200 µg/mL, the MIC [14] was 3.13 µg/mL (≈ 3.49 µM) and the MIC [15] was 6.25 µg/mL (≈ 6.96 µM). For the same compound, the MIC [16] was 3.13 µg/mL (≈ 3.49 µM), the MIC [17] was less than 0.1 µg/mL and the MIC [18] was 1.56 µg/mL (≈ 1.74 µM). The Solubility ([19]; acetone) was “slightly soluble”, the Solubility ([19]; benzene) was “insoluble” and the Solubility ([19]; chloroform) was “insoluble”. For the same compound, the Solubility ([19]; ethyl acetate) was “insoluble”, the Solubility ([19]; methanol) was “Soluble” and the Solubility ([19]; water) was “Soluble”. The toxicity ([20]; mice, 400 mg/kg intravenously) was “No toxicity was observed” and the “activity against gram-negative bacteria” value [21] was “active”.

Work on mureidomycin D yielded an MIC [1] of 6.25 µg/mL, an MIC [2] greater than 200 µg/mL and an MIC [3] of 25 µg/mL. For the same compound, the MIC [4] was 6.25 µg/mL, the MIC [5] was 6.25 µg/mL and the MIC [6] was 6.25 µg/mL. The MIC [7] was 3.13 µg/mL, the MIC [8] was greater than 200 µg/mL and the MIC [9] was 100 µg/mL. For the same compound, the MIC [10] was 6.25 µg/mL, the MIC [11] was greater than 200 µg/mL and the MIC [12] was 1.56 µg/mL. For the same compound, the MIC [13] was greater than 200 µg/mL, the MIC [14] was 6.25 µg/mL and the MIC [15] was 50 µg/mL. It also gave an MIC [16] of 12.5 µg/mL, an MIC [17] of 0.2 µg/mL and an MIC [18] of 6.25 µg/mL. The Solubility ([19]; acetone) was “slightly soluble”, the Solubility ([19]; benzene) was “insoluble” and the Solubility ([19]; chloroform) was “insoluble”. The Solubility ([19]; ethyl acetate) was “insoluble”, the Solubility ([19]; methanol) was “Soluble” and the Solubility ([19]; water) was “Soluble”. The toxicity ([20]; mouse, in vivo, iv, 400 mg/kg) was “No toxicity was observed” and the “activity against gram-negative bacteria” value [21] was “active”.
